The values below come from patent US9121022B2, “Method for controlling herbicide-resistant plants” (priority 2010, dated 2015).

Where a name gives a salt, the structure may show the parent alone.

Type in all cases: in vivo
Data set [1] relates to glyphosate-resistant Palmer amaranth plants. Briefly: additives (salts, EDTA, glycerin) to polynucleotide spray solutions, percent control and plant height (Example 35, Tables 26-28). The conditions noted are these: additive in spray solution. The source says:
The efficacy of different substances (including salts, a chelating agent, a humectant, and polyamines) as polynucleotide transferring agents or as enhancers of a known polynucleotide transferring agent was investigated.

Data set [2] has as its system glyphosate-resistant Palmer amaranth containing 16 copies of EPSPS. Briefly: glyphosate counter-ions with EPSPS polynucleotides, percent control and plant height (Example 35, Table 29). The conditions noted are these: for Palmer control (%): Table 29: glyphosate salt 1682 g acid equivalent per hectare, with or without EPSPS polynucleotides IDT [1]-[4] in 0.5% SILWET L-77, 2% ammonium sulfate, 16-copy EPSPS Palmer amaranth, 3 replicates. The source says:
FIG. 38 depicts the effect of varying glyphosate counter-ions on herbicidal activity (presented as percent of weed control/kill, and as plant height) of topically applied polynucleotides (RNA) on glyphosate-resistant Palmer amaranth plants. A mixture of EPSPS polynucleotides (IDT [1] (SEQ ID NO:83-84), IDT [2] (SEQ ID NO:85-86), IDT [3] (SEQ ID NO:87-88), and IDT [4] (SEQ ID NO:89-90)) in 0.5% SILWET L-77® brand surfactant, 2% ammonium sulfate in 10 millimolar sodium phosphate buffer, pH 6.8 with 0.2% Roundup® WeatherMax® carrier (MON56151 tallowamine surfactant blend of tallowamine (16-18C) and cocoamine (12-14C) in the ratio of 55:45) and 1682 g acid equivalent per hectare of one of the glyphosate salts; K+ glyphosate, isopropylammonium+ glyphosate or monoethanolammonium+ glyphosate at 215 liters/acre by Milli spray on 3 replicates of 4-6 inch glyphosate-resistant Palmer amaranth containing 16 copies of EPSPS. Plant height was scored at 21 days after glyphosate treatment.

Data set [3] has as its system Glyphosate-resistant Palmer amaranth plants (33, 36, or 57 copies EPSPS). The experiment in a line: spermine, spermidine or ammonium sulfate with dsRNA then glyphosate (Example 35, FIG. 39). The conditions noted are these: for performance compared with 2% ammonium sulfate: 1 or 10 millimolar. The procedure:
The effect of the polyamine cations spermine (N,N′-bis(3-aminopropyl)butane-1,4-diamine) and spermidine (N-(3-aminopropyl)butane-1,4-diamine) on herbicidal activity of topically applied polynucleotides (RNA) on glyphosate-resistant Palmer amaranth plants was investigated. […] The dsRNA polynucleotide solutions were prepared with either 1 or 10 millimolar spermine or spermidine or 2% ammonium sulfate, in a 10 millimolar sodium phosphate (pH 6.8) buffer. Control solutions (without polynucleotides) were prepared with either 1 or 10 millimolar spermine or spermidine or 2% ammonium sulfate, in a 10 millimolar sodium phosphate (pH 6.8) buffer. Glyphosate-resistant Palmer amaranth plants (33, 36, or 57 copies EPSPS) were pre-sprayed with 1% SILWET L-77® brand surfactant. The dsRNA polynucleotide solutions (11.6 grams/acre) or buffer solutions were applied as drops on four lower fully expanded leaves of glyphosate resistant Palmer amaranth by pipetting. Two days following polynucleotide treatment the plants were sprayed with glyphosate (3360 g acid equivalent per hectare of Roundup® WeatherMAX® brand herbicide).

For data set [4], the system named is Nicotiana benthamiana phytoene desaturase. Briefly: single PDS ssDNA 22-mer on tobacco: bleaching of organs, seed set, germination (Example 12). As to the method: Four-week old tobacco (Nicotiana benthamiana) plants were used in all treatments. Two fully expanded leaves (one cotyledon, one true leaf) were conditioned by dipping into freshly made surfactant solution (0.1% SILWET L-77® brand surfactant in double-distilled water) for a few seconds and allowed to dry for 15-30 minutes. Twenty microliters of a single-stranded DNA (ssDNA) 22-mer oligonucleotide with the sequence […] (SEQ ID NO:39), corresponding to the nucleotides at positions 1099-1120 of Nicotiana benthamiana phytoene desaturase (SEQ ID NO:2) was applied as a 25 micromolar solution in 0.01% SILWET L-77® brand surfactant in 5 millimolar sodium phosphate buffer, pH 6.8 to the top surface of each conditioned leaf for a total of 40 microliters (1 nanomole oligonucleotide) per plant. Control plants were treated with the SILWET® brand surfactant solution without the DNA oligonucleotide.
Flowers of both control and ssDNA-treated plants were allowed to set seed. Seeds were collected from mature fruits, weighed, and allowed to germinate. Seed weights were identical (about 11 mg per 100 seeds) and seed morphology appeared similar between the ssDNA-treated and the control plants.
In a separate assay using a similar procedure, tobacco plants were conditioned by dipping in 0.1% SILWET L-77® brand surfactant in double-distilled water, allowed to dry for 15-30 minutes, and treated with the PDS ssDNA 22-mer (SEQ ID NO:39) applied as a 25 micromolar solution in 0.01% SILWET L-77® brand surfactant in 5 millimolar sodium phosphate buffer, pH 6.8 to the top surface of each conditioned leaf for a total of 40 microliters (1 nanomole oligonucleotide) per plant. Other plants were not conditioned with a surfactant treatment, but were treated only with 1 nanomole of the PDS ssDNA 22-mer (SEQ ID NO:39) applied either by infiltration with a needleless syringe (shown in FIG. 18B) or by hand application of drops to the leaf surface (not shown in FIG. 18B), and either as a 25 micromolar solution in 0.01% SILWET L-77® brand surfactant in 5 millimolar sodium phosphate buffer, pH 6.8 or as a 25 micromolar solution in 5 millimolar sodium phosphate buffer, pH 6.8 (without surfactant). Negative control plants were treated with the SILWET® brand surfactant buffer solution without the DNA oligonucleotide. Results are depicted in FIG. 18B.

For data set [5], the system named is Palmer amaranth phytoene desaturase (PDS). Briefly: sequence specificity of PDS dsRNA on Palmer amaranth, leaf bleaching (Example 11). The source says:
Palmer amaranth phytoene desaturase (PDS) has the sequence […] […] […] […] […] […] […] […] […] […] […] […] […] […] […] […] […] […] […] […] […] […] […] […] (SEQ ID NO:37). A 678 base pair dsRNA polynucleotide with an anti-sense strand capable of hybridizing to the RNA encoded by the nucleotides at positions 317-994 (shown as underlined text) in SEQ ID NO:37 and a 198 base pair dsRNA polynucleotide with an anti-sense strand capable of hybridizing to the RNA encoded by the nucleotides at positions 797-994 (shown as italicized and underlined text) in SEQ ID NO:37 were synthesized.
Nicotiana benthamiana phytoene desaturase has the sequence […] […] […] […] […] […] […] […] […] […] […] […] […] […] […] […] […] […] […] […] […] […] […] […] […] […] (SEQ ID NO:38). A 685 base pair dsRNA polynucleotide with an anti-sense strand capable of hybridizing to the RNA encoded by the nucleotides at positions 421-1105 (shown as underlined text) in SEQ ID NO:38 and a 192 base pair dsRNA polynucleotide with an anti-sense strand capable of hybridizing to the RNA encoded by the nucleotides at positions 914-1105 (shown as italicized and underlined text) in SEQ ID NO:38 were synthesized.
Palmer amaranth plants having 16 copies of EPSPS and 5-8 inches high were treated with 0.1% SILWET L-77® brand surfactant solution freshly made with ddH2O. Four fully expanded leaves per plant were dipped into the SILWET L-77® brand surfactant solution for a few seconds, and allowed to dry for 30 minutes to 1 hour before application of the polynucleotide composition. Individual polynucleotide solutions were made for each of the 678 bp Palmer PDS dsRNA, 198 bp Palmer PDS dsRNA, the 685 bp Nicotiana benthamiana PDS dsRNA, and the 192 bp Nicotiana benthamiana PDS dsRNA (0.6 micromolar polynucleotide in 0.01% SILWET L-77® brand surfactant, 5 mM sodium phosphate buffer, pH 6.8). 10 microliters of polynucleotide solution (or buffer as a control) was applied to the top surface of each of the four pre-treated leaves per plant to provide a total of 40 microliters for each plant. Plants were kept in a growth chamber, and leaf bleaching was observed 3 days post treatment.

For `OCC(O)CO` [Glycerin, glycerin], the “effect of additive on efficacy of the polynucleotides and herbicidal activity of glyphosate” value (“effect of additive” below) in data set [1] is “enhance the efficacy of the polynucleotides”.

For the molecule `CC(C)N.O=C(O)CNCP(=O)(O)O` [IPA + glyphosate], the “Palmer control (%)” value in data set [2] was determined as 9%.

Regarding `O=C(O)CNCP(=O)([O-])O.[K+]` [K + glyphosate], the “Palmer control (%)” value in data set [2] is on record as 23%.

Consider `NCCO.O=C(O)CNCP(=O)(O)O` [MEA + glyphosate], for which, in data set [2], the “Palmer control (%)” value was determined as 9%.

As to `Cl.N` [ammonium chloride], the “effect of additive” value in data set [1] is “act similarly to ammonium sulfate”.

For the molecule `O=C(O)CN(CCN(CC(=O)O)CC(=O)O)CC(=O)O` [ethylenediaminetetraacetic acid (EDTA), ethylenediaminetetraacetic acid], the “effect of additive” value in data set [1] was “act similarly to 2% ammonium sulfate”.

For the molecule `O=C(O)CNCP(=O)(O)O` [isopropylammonium salt of glyphosate, glyphosate, reference compound], the “herbicidal activity by glyphosate salt” value in data set [2] (1682 g ae/ha glyphosate salt with IDT [1]-[4], 21 days after glyphosate treatment) is “better herbicidal activity compared to the potassium salt”.

As to `NCCCCNCCCN` [spermidine, N-(3-aminopropyl)butane-1,4-diamine], the “effect on 33-copy plants of polyamine alone” value in data set [3] (10 mM, without polynucleotides) is listed as “stunted”. In data set [3], the “performance compared with 2% ammonium sulfate” value is “neither spermine nor spermidine at 1 or 10 millimolar performed as well as 2% ammonium sulfate”.

On to `NCCCNCCCCNCCCN` [spermine, N,N′-bis(3-aminopropyl)butane-1,4-diamine], for which, in data set [3], the “performance compared with 2% ammonium sulfate” value is recorded as “neither spermine nor spermidine at 1 or 10 millimolar performed as well as 2% ammonium sulfate”.

Take `CCCC[P+](CCCC)(CCCC)CCCC.[Br-]` [tetrabutylphosphonium bromide]: in data set [1], the “effect of additive” value is listed as “act similarly to ammonium sulfate”.

Consider “GGCAGTACAATTAAAGGAGATG (DNA, backbone not given here; listed as Nicotiana benthamiana) [SEQ ID NO:39]”, for which the “bleaching without surfactant conditioning (FIG. 18B)” value in data set [4] (1 nanomole by infiltration or hand application of drops, no conditioning) is “displayed bleaching of apical leaves, stems, and flowers”. Moreover, the “bleaching of apical leaves, stems, and flowers (FIG. 18A)” value in data set [4] (1 nanomole per plant after surfactant conditioning) was “all displayed bleaching”. Further, the germination rate in data set [4] (seeds from ssDNA-treated plants, control 95 out of 100) is 4 out of 100. Moreover, the seed weight result in data set [4] (seeds from ssDNA-treated plants, identical to control) is on record as “about 11 mg per 100 seeds”.

B1: 198 bp Palmer PDS dsRNA: dsRNA to positions 797-994 of Palmer amaranth PDS (SEQ ID NO:37) (nucleic acid, listed as Amaranthus palmeri)
sense: ACCGATTCCTGCAGGAGAAACATGGTTCTAAGATGGCCTTCCTAGACGGAAACCCTCCAGAGAGGCTGTGCATGCCTATTGTTAAACACATCGAGTCACTAGGTGGTGAAGTTAAACTTAACTCTCGTATACAAAAGATTCAGTTGGACCAGAGTGGAAGCGTGAAGAGTTTTTTGCTAAATAACGGGAGGGAAATAC
modifications: complementary strand
On to B1, for which the bleaching of leaves entry in data set [5] (0.6 micromolar, 40 microliters per plant, 3 days post treatment) is given as “showed bleaching of leaves”. Besides, the “bleaching of leaves (FIG. 17)” value in data set [5] (separate assay) is given as “apical leaf bleaching observed”.
